Experimental data published in PubChem BioAssay (NCI).
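A five-concentration, 48-hour dose response in 96-well plates underlies each endpoint, interpolated linearly between surrounding concentrations. Abbreviation: GI50, concentration required for 50% inhibition of growth. Definition used: TGI = concentration required for complete inhibition of growth.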

Experiments:
Experiment in all cases: growth of human tumour cells (NCI), 48 h
MDA-MB-435 = tested on: MDA-MB-435
OVCAR-3 ovarian = tested on: OVCAR-3 ovarian
NCI-H460 lung = tested on: NCI-H460 lung
MDA-MB-231 breast = tested on: MDA-MB-231 breast
SNB-19 CNS = tested on: SNB-19 CNS
HS 578T breast = tested on: HS 578T breast
SF-295 CNS = tested on: SF-295 CNS
A498 renal = tested on: A498 renal
EKVX NSCLC = tested on: EKVX NSCLC
OVCAR-4 ovarian = tested on: OVCAR-4 ovarian
MALME-3M melanoma = tested on: MALME-3M melanoma
HOP-92 NSCLC = tested on: HOP-92 NSCLC
SF-268 CNS = tested on: SF-268 CNS
RPMI-8226 leukemia = tested on: RPMI-8226 leukemia
UACC-62 melanoma = tested on: UACC-62 melanoma
SW-620 colon = tested on: SW-620 colon
NCI-H23 lung = tested on: NCI-H23 lung
COLO 205 colon = tested on: COLO 205 colon
HOP-62 NSCLC = tested on: HOP-62 NSCLC
HCT-15 colon = tested on: HCT-15 colon
OVCAR-8 ovarian = tested on: OVCAR-8 ovarian
M14 melanoma = tested on: M14 melanoma
IGROV1 ovarian = tested on: IGROV1 ovarian
NCI-H522 lung = tested on: NCI-H522 lung
SR leukemia = tested on: SR leukemia
NCI-H226 lung = tested on: NCI-H226 lung
SK-OV-3 ovarian = tested on: SK-OV-3 ovarian
A549 NSCLC = tested on: A549 NSCLC
K-562 leukemia = tested on: K-562 leukemia
786-0 renal = tested on: 786-0 renal
PC-3 prostate = tested on: PC-3 prostate
HT29 colon = tested on: HT29 colon
MOLT-4 leukemia = tested on: MOLT-4 leukemia
UO-31 renal = tested on: UO-31 renal
MCF7 breast = tested on: MCF7 breast
HCC-2998 colon = tested on: HCC-2998 colon
UACC-257 melanoma = tested on: UACC-257 melanoma
MDA-MB-468 breast = tested on: MDA-MB-468 breast
HCT-116 colon = tested on: HCT-116 colon
SK-MEL-28 melanoma = tested on: SK-MEL-28 melanoma
SN12C renal = tested on: SN12C renal
BT-549 breast = tested on: BT-549 breast
T-47D breast = tested on: T-47D breast
ACHN renal = tested on: ACHN renal
LOX IMVI melanoma = tested on: LOX IMVI melanoma
KM12 colon = tested on: KM12 colon
U251 CNS = tested on: U251 CNS
TK-10 renal = tested on: TK-10 renal
DU-145 prostate = tested on: DU-145 prostate
SNB-75 CNS = tested on: SNB-75 CNS
RXF 393 renal = tested on: RXF 393 renal
CCRF-CEM leukemia = tested on: CCRF-CEM leukemia
SF-539 CNS = tested on: SF-539 CNS
SK-MEL-2 melanoma = tested on: SK-MEL-2 melanoma
OVCAR-5 ovarian = tested on: OVCAR-5 ovarian
HL-60(TB) leukemia = tested on: HL-60(TB) leukemia
SK-MEL-5 melanoma = tested on: SK-MEL-5 melanoma
CAKI-1 renal = tested on: CAKI-1 renal

`O=C1Nc2ccc(Cl)cc2/C1=C/c1ccc(OCc2ccc(Br)cc2F)cc1` was tested, and the GI50 (MDA-MB-435) was 9.81 µM, the TGI (MDA-MB-435) was 22.2 µM and the GI50 (OVCAR-3 ovarian) was 3.28 µM. The TGI (OVCAR-3 ovarian) was 10.1 µM, the GI50 (NCI-H460 lung) was 2100 nM and the TGI (NCI-H460 lung) was 4.38 µM. The GI50 (MDA-MB-231 breast) was 3.21 µM, the TGI (MDA-MB-231 breast) was 12.2 µM and the GI50 (SNB-19 CNS) was 4.06 µM. The TGI (SNB-19 CNS) was 15.7 µM, the GI50 (HS 578T breast) was 2370 nM and the TGI (HS 578T breast) was 6.69 µM. The GI50 (SF-295 CNS) was 3.24 µM, the TGI (SF-295 CNS) was 12.1 µM and the GI50 (A498 renal) was 2450 nM. It also gave a TGI (A498 renal) of 5.42 µM, a GI50 (EKVX NSCLC) of 4.51 µM and a TGI (EKVX NSCLC) of 22.1 µM. It also gave a GI50 (OVCAR-4 ovarian) of 2060 nM, a TGI (OVCAR-4 ovarian) of 4.67 µM and a GI50 (MALME-3M melanoma) of 2760 nM. For the same compound, the TGI (MALME-3M melanoma) was 9.8 µM, the GI50 (HOP-92 NSCLC) was 2120 nM and the TGI (HOP-92 NSCLC) was 6.91 µM. For the same compound, the GI50 (SF-268 CNS) was 5.01 µM, the TGI (SF-268 CNS) was 17.7 µM and the GI50 (RPMI-8226 leukemia) was 9.01 µM. It also gave a TGI (RPMI-8226 leukemia) of 24 µM, a GI50 (UACC-62 melanoma) of 3.72 µM and a TGI (UACC-62 melanoma) of 15.4 µM. The GI50 (SW-620 colon) was 2800 nM, the TGI (SW-620 colon) was 10.3 µM and the GI50 (NCI-H23 lung) was 2980 nM. The TGI (NCI-H23 lung) was 12.2 µM, the GI50 (COLO 205 colon) was 9.18 µM and the TGI (COLO 205 colon) was 37.5 µM. It also gave a GI50 (HOP-62 NSCLC) of 3.14 µM, a TGI (HOP-62 NSCLC) of 11.7 µM and a GI50 (HCT-15 colon) of 5.77 µM. For the same compound, the TGI (HCT-15 colon) was 21 µM, the GI50 (OVCAR-8 ovarian) was 3.74 µM and the TGI (OVCAR-8 ovarian) was 15.1 µM. The GI50 (M14 melanoma) was 4.97 µM, the TGI (M14 melanoma) was 18.6 µM and the GI50 (IGROV1 ovarian) was 4.11 µM. The TGI (IGROV1 ovarian) was 15.5 µM, the GI50 (NCI-H522 lung) was 3.31 µM and the TGI (NCI-H522 lung) was 11.1 µM. It also gave a GI50 (SR leukemia) of 2720 nM, a TGI (SR leukemia) of 9.16 µM and a GI50 (NCI-H226 lung) of 2660 nM. It also gave a TGI (NCI-H226 lung) of 11.5 µM, a GI50 (SK-OV-3 ovarian) of 4.2 µM and a TGI (SK-OV-3 ovarian) of 17.9 µM. The GI50 (A549 NSCLC) was 3.25 µM, the TGI (A549 NSCLC) was 11.3 µM and the GI50 (K-562 leukemia) was 3.87 µM. It also gave a TGI (K-562 leukemia) of 15.3 µM, a GI50 (786-0 renal) of 3.06 µM and a TGI (786-0 renal) of 8.32 µM. The GI50 (PC-3 prostate) was 3.79 µM, the TGI (PC-3 prostate) was 16.6 µM and the GI50 (HT29 colon) was 12.9 µM. It also gave a TGI (HT29 colon) of 29.1 µM, a GI50 (MOLT-4 leukemia) of 4.63 µM and a TGI (MOLT-4 leukemia) of 19.2 µM. For the same compound, the GI50 (UO-31 renal) was 1460 nM, the TGI (UO-31 renal) was 6.65 µM and the GI50 (MCF7 breast) was 2950 nM. The TGI (MCF7 breast) was 14.2 µM, the GI50 (HCC-2998 colon) was 20.5 µM and the TGI (HCC-2998 colon) was 65.7 µM. The GI50 (UACC-257 melanoma) was 13 µM, the TGI (UACC-257 melanoma) was 27.6 µM and the GI50 (MDA-MB-468 breast) was 8.46 µM. The TGI (MDA-MB-468 breast) was 21.9 µM, the GI50 (HCT-116 colon) was 3.13 µM and the TGI (HCT-116 colon) was 10.7 µM. The GI50 (SK-MEL-28 melanoma) was 5.42 µM, the TGI (SK-MEL-28 melanoma) was 17.4 µM and the GI50 (SN12C renal) was 4.62 µM. It also gave a TGI (SN12C renal) of 18.7 µM, a GI50 (BT-549 breast) of 9.48 µM and a TGI (BT-549 breast) of 26.8 µM. The GI50 (T-47D breast) was 10.9 µM, the TGI (T-47D breast) was 30.8 µM and the GI50 (ACHN renal) was 2190 nM. The TGI (ACHN renal) was 5.29 µM, the GI50 (LOX IMVI melanoma) was 2880 nM and the TGI (LOX IMVI melanoma) was 10 µM. It also gave a GI50 (KM12 colon) of 8.56 µM, a TGI (KM12 colon) of 25.7 µM and a GI50 (U251 CNS) of 2030 nM. It also gave a TGI (U251 CNS) of 4.07 µM, a GI50 (TK-10 renal) of 6.75 µM and a TGI (TK-10 renal) of 22.9 µM. It also gave a GI50 (DU-145 prostate) of 10.2 µM, a TGI (DU-145 prostate) of 26.6 µM and a GI50 (SNB-75 CNS) of 2000 nM. For the same compound, the TGI (SNB-75 CNS) was 7.32 µM, the GI50 (RXF 393 renal) was 4.73 µM and the TGI (RXF 393 renal) was 18.1 µM. It also gave a GI50 (CCRF-CEM leukemia) of 4.55 µM, a TGI (CCRF-CEM leukemia) of 17.7 µM and a GI50 (SF-539 CNS) of 6.32 µM. The TGI (SF-539 CNS) was 19.1 µM, the GI50 (SK-MEL-2 melanoma) was 15.5 µM and the TGI (SK-MEL-2 melanoma) was 30.1 µM. For the same compound, the GI50 (OVCAR-5 ovarian) was 13 µM, the TGI (OVCAR-5 ovarian) was 42.9 µM and the GI50 (HL-60(TB) leukemia) was 10.9 µM. It also gave a TGI (HL-60(TB) leukemia) of 26.1 µM, a GI50 (SK-MEL-5 melanoma) of 10.8 µM and a TGI (SK-MEL-5 melanoma) of 23.1 µM. For the same compound, the GI50 (CAKI-1 renal) was 2050 nM and the TGI (CAKI-1 renal) was 7.06 µM.
